Literature values as cited in patent publication US7214684B2, “Methods for the treatment of allergic rhinitis” (Sepracor Inc., priority 1994, dated 2007).

Assays:
[1] = biological target: H-2 histamine receptor (Homo sapiens, UniProt P25021); conditions: H-2 receptor-mediated response
[2] = test system: melanoma and fibrosarcoma tumors; conditions: Brandes et al. 1994

H-2 histamine receptor, sequence (P25021 whole entry): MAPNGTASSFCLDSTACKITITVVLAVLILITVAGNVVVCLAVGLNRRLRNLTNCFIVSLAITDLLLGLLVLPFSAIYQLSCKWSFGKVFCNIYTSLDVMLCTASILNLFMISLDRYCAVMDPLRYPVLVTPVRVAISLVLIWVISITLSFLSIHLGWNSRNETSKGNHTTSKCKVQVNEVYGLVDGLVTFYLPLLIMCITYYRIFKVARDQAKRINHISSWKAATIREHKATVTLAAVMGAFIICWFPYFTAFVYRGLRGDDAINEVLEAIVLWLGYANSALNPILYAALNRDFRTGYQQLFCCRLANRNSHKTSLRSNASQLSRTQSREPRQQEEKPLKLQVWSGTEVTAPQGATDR

Row | Structure (SMILES) | effect on the chronotropic effect of histamine on atria [1] | association with tumor growth [2]
1 | CCOC(=O)N1CCC(=C2c3ccc(Cl)cc3CCc3cccnc32)CC1 [Loratadine] | nor does it alter | associated with growth of both melanoma and fibrosarcoma tumors
2 | COc1ccc(CCN2CCC(Nc3nc4ccccc4n3Cc3ccc(F)cc3)CC2)cc1 [astemizole] | – | associated with growth of both melanoma and fibrosarcoma tumors
